# Data taken from publication PMC10154443, “Peptide-based PET imaging agent of tumor TIGIT expression” (EJNMMI Research, 2023).
# Where a SMILES comes first, the peptide text is derived from it. [ ]: non-standard residue; d: D form. The star is where a group is joined. DOTA = O=C(O)CN1CCN(CC(=O)O)CCN(CC(=O)*)CCN(CC(=O)O)CC1; Ahx = NCCCCCC(=O)O
# Experiments:
# 4T1 cells = assay: cell uptake experiment, 4T1 cells; type: cell-based, murine
# Protocol: (§1) For cell uptake experiments, 4T1 and A375 cells were incubated with ^68Ga-DOTA-^DTBP-3 at different time points (15, 30, 60 and 120 min), respectively. Then, the cells were washed 3 times with cold PBS, and 0.1 M NaOH solution was used to lyse the cells and collected for γ-count.
# A375 cells = assay: cell uptake experiment, A375 cells; type: cell-based, human; conditions: A375 cells (low TIGIT expression), at 0.5 h; time points 15, 30, 60, 120 min; γ-count
# Protocol: as §1
# [1] = test system: 4T1 tumor-bearing BALB/c mice; type: in vivo
# Protocol: (§2) Female BALB/c mice of 4–5 weeks were purchased from Beijing Biotechnology Co., Ltd. (Beijing, China). The 4T1 murine cancer model was established by the injection of 3 × 10^5 cells/150 μl into the front right limbs of female BALB/c mice. Experiments started when the tumors reached a volume of approximately 250–350 mm^3.
# PET images were acquired on a micro-PET scanner (InliView-3000B, Minfound, Hangzhou, China). Mice bearing subcutaneous tumors were anesthetized with isoflurane (1.0–1.5%) and then were injected with about 5.55 MBq of ^68Ga-DOTA-^DTBP-3 via the tail vein. In the blocking group, tumor-bearing BALB/c were pretreated with the 40-fold excess of ^DTBP-3 for 0.5 h, and then injected equal dose of radiotracer with the above groups. Static imaging (15 min) was collected at different time points (0.5, 1 and 2 h post-injection).
# [2] = test system: 4T1 tumor-bearing BALB/c mice; type: in vivo; remark: listed apart in the source
# Protocol: as §2
# Female BALB/c tumor-bearing mice with subcutaneous 4T1 xenografts were randomly divided into 2 groups (n = 9 for the experimental group, and n = 3 for the blocking group), and then were injected with 3.70 MBq of ^68Ga-DOTA-^DTBP-3 via the tail vein. At different time points (0.5, 1 and 2 h post-injection for the experimental group, 0.5 h post-injection for the blocking group), the mice were euthanized, and the tumor, main organs (muscle, bone, large intestine, small intestine, stomach, kidney, spleen, liver, lung, heart, brain) and blood were weighed and counted by a γ counter. The results are expressed as percentage injected dose per gram of tissue (% ID/g), and the values were calculated based on signal decay correction and normalization to external ^68Ga standards.
smiles,measurement,setting,value
"CC(C)C[C@@H](NC(=O)[C@@H](CCCNC(=N)N)NC(=O)[C@@H](Cc1c[nH]cn1)NC(=O)[C@@H](Cc1c[nH]c2ccccc12)NC(=O)[C@@H](Cc1c[nH]cn1)NC(=O)[C@@H](Cc1ccccc1)NC(=O)[C@H](NC(=O)[C@@H](Cc1ccc(O)cc1)NC(=O)CNC(=O)CNC(=O)CCCCCNC(=O)CN1CCN(CC(=O)O)CCN(CC(=O)O)CCN(CC(=O)O)CC1)[C@H](C)O)C(=O)N[C@H](CC(N)=O)C(=O)N1CCC[C@@H]1C(=O)O [^68Ga-DOTA-^DTBP-3, metal not drawn] ({DOTA-Ahx}-GG[dY][dT][dF][dH][dW][dH][dR][dL][dN][dP]-OH; N-terminus and C-terminus assumed)",cell uptake of radiotracer (highest),"4T1 cells; 4T1 cells (high TIGIT expression), at 0.5 h, time points 15, 30, 60, 120 min, γ-count",8.41 ± 1.22%
same,4T1 cellular uptake with excess unlabeled ^DTBP-3 (blocking),"4T1 cells; 4T1 cells, excess unlabeled ^DTBP-3",could be blocked
same,cell uptake of radiotracer (highest),A375 cells,2.56 ± 0.19%
same,tumor uptake on micro-PET,"[1]; 4T1 tumor, 0.5 h after intravenous injection, about 5.55 MBq, n = 3",3.49 ± 0.14
same,"tumor uptake on micro-PET, blocking group",[1]; 4T1 tumor-bearing mice pretreated with 40-fold excess unlabeled ^DTBP-3 for 0.5 h,no obvious uptake
same,time of peak uptake of tumor tissue,"[1]; mouse, in vivo",about 0.5 h
same,tumor-to-blood ratio (biodistribution),[2]; 0.5 h post-injection,high
same,tumor-to-muscle ratio (biodistribution),[2]; 0.5 h post-injection,high
same,clearance from the blood,"[2]; mouse, in vivo",quickly cleared
